Assays:
Test in all cases: In vitro cell proliferation assay (CellTiter-Glo)
Format in all cases: cell-based
A2780 = details: Homo sapiens, A2780 cells, 72 h treatment, read-out: Cell Line IC50 A2780
Procedure: (§1) Human cancer cell lines were seeded in white 384 well-plates (1250 cells/well) in complete medium (RPM11640 or E-MEM plus 10% Fetal bovine serum) and treated with compounds dissolved in 0.1% DMSO, 24 h after seeding. The cells were incubated at 37° C. and 5% CO2 and after 72 h the plates were processed using CellTiter-Glo assay (Promega) following the manufacturer's instruction.
(§2) CellTiter-Glo is a homogenous method based on the quantification of the ATP present, an indicator of metabolically active cells. ATP is quantified using a system based on luciferase and D-luciferin resulting into light generation.
(§3) Briefly, 25 μL/well of reagent solution are added to each well and, after 5 minutes shaking, microplates are read by a luminometer. The luminescent signal is proportional to the number of live cells present in culture.
(§4) Dose-response curves were generated by sigmoid function interpolation of 8 concentration points and the antiproliferative activity of compounds was reported as the half-maximal inhibitory concentration (IC50).

HCC1954 = details: Homo sapiens, HCC1954 cells, 72 h treatment, read-out: Cell Line IC50 HCC1954
Procedure: as §1, §2, §3, §4

HCT-116 = details: Homo sapiens, HCT-116 cells, 72 h treatment, read-out: Cell Line IC50 HCT-116
Procedure: as §1, §2, §3, §4

HELA = details: Homo sapiens, HELA cells, 72 h treatment, read-out: Cell Line IC50 HELA
Procedure: as §1, §2, §3, §4

MCF7 = details: Homo sapiens, MCF7 cells, 72 h treatment, read-out: Cell Line IC50 MCF7
Procedure: as §1, §2, §3, §4

MDA-MB-468 = details: Homo sapiens, MDA-MB-468 cells, 72 h treatment, read-out: Cell Line IC50 MDA-MB-468
Procedure: as §1, §2, §3, §4

MDA-MB_213 = details: Homo sapiens, MDA-MB_213 cells, 72 h treatment, read-out: Cell Line IC50 MDA-MB_213
Procedure: as §1, §2, §3, §4

## CO[C@H]1OCCN2[C@@H]1O[C@@H]1[C@H](C)O[C@@H](O[C@H]3C[C@](O)(C(C)=O)Cc4c(O)c5c(c(O)c43)C(=O)c3c(F)cccc3C5=O)C[C@@H]12 [Comp. 21, (8S,10S)-8-acetyl-1-fluoro-6,8,11-trihydroxy-10-{[(1S,3R,4aS,9aR,10aS)-9-methoxy-1-methyloctahydro-1H-pyrano[4′,3′:4,5][1,3]oxazolo[2,3-c][1,4]oxazin-3-yl]oxy}-7,8,9,10-tetrahydrotetracene-5,12-dione]
A2780
  IC50: 0.032 nM
HCC1954
  IC50: 0.377 nM
HCT-116
  IC50: 0.146 nM
HELA
  IC50: 0.349 nM
MCF7
  IC50: 3.52 nM
MDA-MB-468
  IC50: 0.072 nM
MDA-MB_213
  IC50: 0.306 nM

## CO[C@H]1OCCN2[C@@H]1O[C@@H]1[C@H](C)O[C@@H](O[C@H]3C[C@](O)(C(C)=O)Cc4c(O)c5c(c(O)c43)C(=O)c3c(N)cccc3C5=O)C[C@@H]12 [Comp. 22, (8S,10S)-8-acetyl-1-amino-6,8,11-trihydroxy-10-{[(1S,3R,4aS,9S,9aR,10aS)-9-methoxy-1-methyloctahydro-1H-pyrano[4′,3′:4,5][1,3]oxazolo[2,3-c][1,4]oxazin-3-yl]oxy}-7,8,9,10-tetrahydrotetracene-5,12-dione]
A2780
  IC50: 0.044 nM
HCC1954
  IC50: 0.549 nM
HCT-116
  IC50: 0.2 nM
HELA
  IC50: 0.7 nM
MCF7
  IC50: 0.668 nM
MDA-MB-468
  IC50: 0.313 nM
MDA-MB_213
  IC50: 0.538 nM

## CO[C@H]1OCCN2[C@@H]1O[C@@H]1[C@H](C)OC(O[C@H]3C[C@](O)(C(C)=O)Cc4c(O)c5c(c(O)c43)C(=O)c3c(NC(=O)[C@H](C)N)cccc3C5=O)C[C@@H]12 (some centres unmarked) [Comp. 26]
A2780
  IC50: 1.2 nM
HCC1954
  IC50: 4.8 nM
HCT-116
  IC50: 1.1 nM
HELA
  IC50: 3.5 nM
MCF7
  IC50: 3.8 nM
MDA-MB-468
  IC50: 2.3 nM

From patent publication US20170312290A1, “FUNCTIONALIZED MORPHOLINYL ANTHRACYCLINE DERIVATIVES” (Nerviano Medical Sciences S.R.L., priority 2014, published 2017)
